Where two headings read alike, the source gives them in different places. Ends that are not written are not given here. Peptide text beside a SMILES is read from it.
Experiments:
B16F10 cells = experiment: Melanogenesis inhibition test in α-MSH-stimulated B16F10 cells; type: cell-based
Procedure: (§1) B16F10 cells were cultured in DMEM that was supplemented with 10% (v/v) fetal bovine serum (FBS), 50 μg/mL streptomycin and 50 U/mL penicillin at 37 °C in 5% CO2. Mel-Ab cells were cultured in DMEM with 10% (v/v) FBS, 100 nM 12-O-tetradecanoylphorbol-13-acetate (TPA), 1 nM cholera toxin (CT), 50 μg/mL streptomycin and 50 U/mL penicillin at 37 °C in 5% CO2.
(§2) The effects of the inhibitors (peptides and arbutin) on melanin formation in Mel-Ab cells and B16F10 cells were evaluated. B16F10 cells (5 × 10^3 per well) were cultured in 96-well plates and incubated with the samples (1, 5, 10, 50 and 100 μM) in a complete medium that contained α-MSH for 4 days. Then, the medium was collected from each well and the optical densities were measured at 405 nm. Mel-Ab cells (5 × 10^4 per well) were cultured in 6-well plates and incubated with the samples (1, 5, 10, 50 and 100 μM) in the complete medium for 3 days. Next, the treated cells were then dissolved in 1 mL of 1 N NaOH at 100 °C for 30 min and centrifuged for 20 min at 16,000 g, after which the optical densities of the supernatants were measured at 400 nm.
The percentage of melanin content was calculated via following equation: % melanin content = (A/B) × 100 where A represents the optical density of the sample-treated group and B represents the optical density of the untreated control group. […]

Mel-Ab cells = experiment: Melanogenesis inhibition test in Mel-Ab cells; type: cell-based, mouse
Procedure: as §1, §2
The percentage of melanin content was calculated via following equation: % melanin content = (A/B) × 100 where A represents the optical density of the sample-treated group and B represents the optical density of the untreated control group. All the tests were conducted independently three times. Each experiment was performed in triplicate and the results were averaged.

[1] = system: phosphorylation of CREB at serin-133; conditions: 100 µM, α-MSH-treated B16F10 cells
Procedure: For the Western blot analysis, B16F10 cells were seeded into 6-well plates. After 24 h, the cultured medium was replaced with serum-free DMEM and incubated for another 24 h. Then, the cells were treated with samples in new serum-free media and incubated for 0–360 min. Cells were lysed with RIPA buffer containing protease inhibitor cocktail and phosphatase inhibitor cocktail. Protein concentration was determined using the Bicinchoninic acid (BCA) protein assay kit (Thermo Scientific, Rockford, IL, USA). Protein (20 μg) samples were separated on 4–20% polyacrylamide gels and then transferred to polyvinylidene fluoride (PVDF) membranes (#1704156, Bio-Rad, Hercules, CA, USA), which were blocked with 5% nonfat dry milk in Tris buffered saline solution containing 0.1% Tween 20. The blots were incubated with the primary antibodies at 4 °C overnight. Membrane-bound primary antibodies were detected using HRP-conjugated secondary antibodies and chemiluminescent substrate. Digital images of the blotted membranes were obtained and analyzed using ChemiDoc XRS+ Systems with Image Lab Software (Version 5.1) (Bio-Rad). The relative protein expression of p-cAMP response element-binding protein (CREB) was normalized to that of CREB and glyceraldehyde 3-phosphate dehydrogenase (GAPDH).

[2] = Lipid peroxidation ferric thiocyanate assay (antioxidant activity); conditions: lipid peroxidation inhibition after 24 h, 50 °C, dark, peptide 250 μM; for antioxidant activity relative to the original peptide (enhancement): original peptide set to 1.0
Procedure: Linoleic acid and Tween 20 were mixed in 0.1 M sodium phosphate buffer (pH 7.0) to prepare a linoleic acid emulsion (50 mM). […] These reaction mixtures were tightly capped by septa in glass vials and kept at 50 °C for 30 h under dark conditions. To evaluate the antioxidant activity of the oligopeptides by the quantification of lipid peroxidation inhibition, the ferric thiocyanate assay was used with some modifications. An aliquot of the reaction mixture (25 µL) was withdrawn at intervals and mixed with 1.175 mL of 75% ethanol, 25 µL of 20 mM ferrous chloride in 3.5% HCl and 25 µL of 30% ammonium thiocyanate. The absorbance was measured at 500 nm after 3 min, which was when the color development by the ferric thiocyanate complex was maximal. Each experiment was conducted in triplicate and the results were averaged.

mushroom tyrosinase = experiment: Mushroom tyrosinase inhibition test with L-DOPA as substrate; type: biochemical; conditions: for IC50: L-DOPA 2.5 mM, mushroom tyrosinase 100 µg/mL (428 U/mL), 25 °C, 10 min, read-out: IC50 (tyrosinase inhibitory activity); for effect on dopachrome formation (UV-Vis scanning): dopachrome at 475 nm, L-DOPA and mushroom tyrosinase
Procedure: A mushroom tyrosinase inhibition test was carried out with L-DOPA as a substrate. Two hundred fifty microliters of phosphate buffer (0.1 M, pH 6.8), 250 µL of 2.5 mM L-DOPA, 200 µL of water and 25 µL of oligopeptide in DMSO at various concentrations were mixed. The reaction mixture was incubated at 25 °C for 10 min after the addition of 25 µL of aqueous mushroom tyrosinase solution (100 µg/mL, 428 U/mL) and then the UV absorbance was measured at 475 nm. The following equation was used to calculate the percentage of mushroom tyrosinase inhibition: % Tyrosinase Inhibition = (1 − A/B) × 100 where A represents the absorbance at 475 nm of the reaction mixture that contained the inhibitor and B represents the absorbance at 475 nm of a reference reaction mixture that contained DMSO instead of the inhibitor. The concentration of half-maximal inhibitory activity (IC50) values were determined by measuring the tyrosinase inhibitory activity at various peptide concentrations (10, 50, 100, 250 and 500 µM). Each experiment was performed in triplicate and the results were averaged.

| Molecule | inhibition of melanin production (in words) (B16F10 cells; α-MSH treated B16F10 cells, various concentrations) | reduction of melanin content (Mel-Ab cells; 100 µM, 3 days) | suppression of phosphorylation of CREB ([1]; 10 min) | suppression of phosphorylation of CREB ([1]; 180 min) | antioxidant activity relative to the original peptide (enhancement) [2] | reduction of melanin content (Mel-Ab cells; 5 μM) | suppression of melanin production (B16F10 cells; 50 µM, B16F10 cells) | tyrosinase inhibition mode (Lineweaver-Burk plot) (mushroom tyrosinase; Km values increase and Vmax values decrease with increasing peptide concentration) | IC50 (mushroom tyrosinase) | effect on dopachrome formation (UV-Vis scanning) (mushroom tyrosinase) | decrease of antioxidant activity relative to the original peptide [2] |
| --- | --- | --- | --- | --- | --- | --- | --- | --- | --- | --- | --- |
| CC[C@H](C)[C@H](NC(=O)[C@H](Cc1c[nH]cn1)NC(=O)[C@H](CCSC)NC(C)=O)C(=O)N[C@@H](CCCNC(=N)N)C(N)=O [Ac-MHIR] (Ac-MHIR-NH2) | barely inhibits melanin production |  |  |  |  |  |  |  |  |  |  |
| MHIRL-NH2 [MHIRL, methionine-histidine-isoleucine-arginine-leucine amide] |  | 28% |  |  |  |  |  |  |  |  |  |
| Methionine-histidine-isoleucine-arginine amide [MHIR] |  | 57% | 18% | 37% | 1.3–1.8 times | 30% | up to 80% | mixed-mode of inhibition | 83 µM | sufficiently suppress dopachrome formation |  |
| histidine-isoleucine-arginine-leucine amide [HIRL] |  | 33% |  |  | 1.3–1.8 times |  |  |  | 70 µM | sufficiently suppress dopachrome formation | more than 50% |

From PMC7698045, “Milk Protein-Derived Antioxidant Tetrapeptides as Potential Hypopigmenting Agents” (Antioxidants, 2020)
